{"source": "patent US4234583A", "about": "“2-Chloro-4-(4-lower alkyl-1-piperazinyl)benzenemethanol, N^ω -oxides and methods for their preparation” (priority 1978, dated 1980)", "key": {"[1]": {"experiment": "Acute intramuscular toxicity (LD50) in uninfected mice", "settings": "mouse, in vivo, im, read-out: Approximate Acute Intramuscular LD50", "description": "Approximate Acute Intramuscular LD50\nValues in Uninfected Mice"}, "[2]": {"test_system": "Salmonella typhimurium TA-100", "format": "cell-based", "description": "The compounds of this invention have the specific advantage over the corresponding des-N-oxide compounds in that the compounds are non-mutagenic in a test designed to determine mutagenicity which is described in J. Pharm. Exp. Therap., 200, 1 (1977).\nMutagenic Activity Using Salmonella typhimurium (TA-98 and TA-100)"}, "[3]": {"test_system": "Mature S. mansoni, Puerto Rican/Michigan strain", "experiment": "Primary screen in mice, single oral doses, mature S. mansoni infection (Puerto Rican/Michigan strain)", "format": "in vivo", "description": "(§1) The compounds of the invention are useful in the treatment of schistosomiasis. Compounds of this invention, when placed in the primary screen in mice described in Am. J. Trop.\n(§2) Effects of Single Oral Doses (Aqueous Solutions ) of 2-Chloro-\n(§3) 4-(4-alkyl-1-piperazinyl)benzenemethanol, N^ω -oxides Against\n(§4) Mature S. mansoni Infections in Mice"}, "[4]": {"test_system": "Mature S. mansoni, Puerto Rican/Sterling Winthrop strain", "experiment": "Primary screen in mice, single oral doses, mature S. mansoni infection (Puerto Rican/Sterling Winthrop strain)", "format": "in vivo", "description": "as §1, §2, §3, §4"}, "[5]": {"test_system": "Mature S. mansoni, Puerto Rican/Walter Reed strain", "experiment": "Primary screen in mice, single oral doses, mature S. mansoni infection (Puerto Rican/Walter Reed strain)", "format": "in vivo", "description": "as §1, §2, §3, §4"}, "[6]": {"test_system": "Mature S. mansoni, St. Lucian strain", "experiment": "Primary screen in mice, single oral doses, mature S. mansoni infection (St. Lucian strain)", "format": "in vivo", "description": "as §1, §2, §3, §4"}, "[7]": {"test_system": "Mature S. mansoni, Brazilian strain", "experiment": "Primary screen in mice, single oral doses, mature S. mansoni infection (Brazilian strain)", "format": "in vivo", "description": "as §1, §2, §3, §4"}, "[8]": {"test_system": "Mature S. mansoni, Liberian strain", "experiment": "Primary screen in mice, single oral doses, mature S. mansoni infection (Liberian strain)", "format": "in vivo", "description": "as §1, §2, §3, §4"}, "[9]": {"test_system": "Mature S. mansoni (Puerto Rican/Walter Reed Strain)", "experiment": "Secondary test in monkeys, mature S. mansoni infection", "format": "in vivo", "settings": "monkeys (Cebus apella), 50 × 4 mg/kg", "description": "The preferred compound of the invention, when placed in a secondary test in monkeys described in Am. J. Trop. Med. Hyg. 15, 705 (1966) gave the following data:\nEffects of 2-chloro-4-(4-methyl-1-piperazinyl)benzenemethanol,\nN^ω -oxide Against Mature S. mansoni (Puerto Rican/Walter Reed\nStrain) Infections in Monkeys (Cebus apella)"}}, "note": "“And” between values parts separate entries of the source, which are not always exact repeats. Equal entries are not always repeated."}
{"smiles": "CC(C)N1CCN(c2ccc(CO)c(Cl)c2)CC1", "note": "[CH(CH3)2 des N-oxide, 2-chloro-4-[4-(1-methylethyl)-1-piperazinyl]benzenemethanol, reference compound]", "values": [{"measurement": "LD50", "setting": "[1]", "result": 100, "unit": "mg/kg"}]}
{"smiles": "CCN1CCN(c2ccc(CO)c(Cl)c2)CC1", "note": "[C2 H5 des N-oxide, 2-chloro-4-(4-ethyl-1-piperazinyl)benzenemethanol, reference compound]", "values": [{"measurement": "LD50", "setting": "[1]", "result": 150, "unit": "mg/kg"}]}
{"smiles": "CN1CCN(c2ccc(CO)c(Cl)c2)CC1", "note": "[CH3 des N-oxide, 2-chloro-4-(4-methyl-1-piperazinyl)benzenemethanol, reference compound]", "values": [{"measurement": "Mutagenic activity, Revertants per n mole", "setting": "[2]", "result": 0.1, "unit": "Revertants per n mole"}, {"measurement": "LD50", "setting": "[1]", "result": 200, "unit": "mg/kg"}]}
{"smiles": "CC[N+]1([O-])CCN(c2ccc(CO)c(Cl)c2)CC1", "note": "[C2 H5, 2-chloro-4-(4-ethyl-1-piperazinyl)benzenemethanol, N^ω -oxide]", "values": [{"measurement": "% Mice Cured", "setting": "[3]; single oral dose 75 mg/kg", "result": 71, "unit": "%"}, {"measurement": "% Reduction Live Worms", "setting": "[3]; single oral dose 75 mg/kg", "result": 92, "unit": "%"}, {"measurement": "LD50", "setting": "[1]", "result": "> 250", "unit": "mg/kg"}]}
{"smiles": "C[N+]1([O-])CCN(c2ccc(CO)c(Cl)c2)CC1", "note": "[CH3, 2-chloro-4-(4-methyl-1-piperazinyl)benzenemethanol, N^ω -oxide]", "values": [{"measurement": "% Mice Cured", "setting": "[3]; single oral dose 40 mg/kg", "result": 43, "unit": "%"}, {"measurement": "% Reduction Live Worms", "setting": "[3]; single oral dose 40 mg/kg", "result": 79, "unit": "%"}, {"measurement": "% Mice Cured", "setting": "[3]; single oral dose 75 mg/kg", "result": 52, "unit": "%"}, {"measurement": "% Reduction Live Worms", "setting": "[3]; single oral dose 75 mg/kg", "result": 90, "unit": "%"}, {"measurement": "% Mice Cured", "setting": "[3]; single oral dose 300 mg/kg", "result": 87, "unit": "%"}, {"measurement": "% Reduction Live Worms", "setting": "[3]; single oral dose 300 mg/kg", "result": 99, "unit": "%"}, {"measurement": "% Mice Cured", "setting": "[4]; single oral dose 40 mg/kg", "result": 33, "unit": "%"}, {"measurement": "% Reduction Live Worms", "setting": "[4]; single oral dose 40 mg/kg", "result": 56, "unit": "%"}, {"measurement": "% Mice Cured", "setting": "[4]; single oral dose 75 mg/kg", "result": 60, "unit": "%"}, {"measurement": "% Reduction Live Worms", "setting": "[4]; single oral dose 75 mg/kg", "result": 69, "unit": "%"}, {"measurement": "% Mice Cured", "setting": "[5]; single oral dose 100 mg/kg", "result": 100, "unit": "%"}, {"measurement": "% Reduction Live Worms", "setting": "[5]; single oral dose 100 mg/kg", "result": 100, "unit": "%"}, {"measurement": "% Mice Cured", "setting": "[6]; single oral dose 150 mg/kg", "result": 0, "unit": "%"}, {"measurement": "% Reduction Live Worms", "setting": "[6]; single oral dose 150 mg/kg", "result": 16, "unit": "%"}, {"measurement": "% Mice Cured", "setting": "[7]; single oral dose 20 mg/kg", "result": 0, "unit": "%"}, {"measurement": "% Reduction Live Worms", "setting": "[7]; single oral dose 20 mg/kg", "result": 73, "unit": "%"}, {"measurement": "% Mice Cured", "setting": "[7]; single oral dose 40 mg/kg", "result": 51, "unit": "%"}, {"measurement": "% Reduction Live Worms", "setting": "[7]; single oral dose 40 mg/kg", "result": 88, "unit": "%"}, {"measurement": "% Mice Cured", "setting": "[8]; single oral dose 50 mg/kg", "result": 0, "unit": "%"}, {"measurement": "% Reduction Live Worms", "setting": "[8]; single oral dose 50 mg/kg", "result": 25, "unit": "%"}, {"measurement": "Final Egg Count", "setting": "[9]", "result": 0}, {"measurement": "% Reduction Live Worms", "setting": "[9]; N^ω -oxide, 4 mg/kg", "result": "92% and 91%"}, {"measurement": "LD50", "setting": "[1]", "result": 1500, "unit": "mg/kg"}]}
{"smiles": "CC(C)[N+]1([O-])CCN(c2ccc(CO)c(Cl)c2)CC1", "note": "[CH(CH3)2, 2-chloro-4-[4-(1-methylethyl)-1-piperazinyl]-benzenemethanol, N^ω -oxide]", "values": [{"measurement": "% Mice Cured", "setting": "[3]; single oral dose 40 mg/kg", "result": 19, "unit": "%"}, {"measurement": "% Reduction Live Worms", "setting": "[3]; single oral dose 40 mg/kg", "result": 57, "unit": "%"}, {"measurement": "% Mice Cured", "setting": "[3]; single oral dose 75 mg/kg", "result": 100, "unit": "%"}, {"measurement": "% Reduction Live Worms", "setting": "[3]; single oral dose 75 mg/kg", "result": 100, "unit": "%"}, {"measurement": "% Mice Cured", "setting": "[3]; single oral dose 125 mg/kg", "result": 57, "unit": "%"}, {"measurement": "% Reduction Live Worms", "setting": "[3]; single oral dose 125 mg/kg", "result": 90, "unit": "%"}, {"measurement": "% Mice Cured", "setting": "[4]; single oral dose 75 mg/kg", "result": 0, "unit": "%"}, {"measurement": "% Reduction Live Worms", "setting": "[4]; single oral dose 75 mg/kg", "result": 25, "unit": "%"}, {"measurement": "% Mice Cured", "setting": "[5]; single oral dose 40 mg/kg", "result": 75, "unit": "%"}, {"measurement": "% Reduction Live Worms", "setting": "[5]; single oral dose 40 mg/kg", "result": 96, "unit": "%"}, {"measurement": "% Mice Cured", "setting": "[5]; single oral dose 75 mg/kg", "result": 72, "unit": "%"}, {"measurement": "% Reduction Live Worms", "setting": "[5]; single oral dose 75 mg/kg", "result": 85, "unit": "%"}, {"measurement": "% Mice Cured", "setting": "[6]; single oral dose 40 mg/kg", "result": 0, "unit": "%"}, {"measurement": "% Reduction Live Worms", "setting": "[6]; single oral dose 40 mg/kg", "result": 50, "unit": "%"}, {"measurement": "% Mice Cured", "setting": "[6]; single oral dose 75 mg/kg", "result": 57, "unit": "%"}, {"measurement": "% Reduction Live Worms", "setting": "[6]; single oral dose 75 mg/kg", "result": 75, "unit": "%"}, {"measurement": "% Mice Cured", "setting": "[7]; single oral dose 40 mg/kg", "result": 0, "unit": "%"}, {"measurement": "% Reduction Live Worms", "setting": "[7]; single oral dose 40 mg/kg", "result": 32, "unit": "%"}, {"measurement": "% Mice Cured", "setting": "[8]; single oral dose 75 mg/kg", "result": 0, "unit": "%"}, {"measurement": "% Reduction Live Worms", "setting": "[8]; single oral dose 75 mg/kg", "result": 42, "unit": "%"}, {"measurement": "% Mice Cured", "setting": "[8]; single oral dose 125 mg/kg", "result": 100, "unit": "%"}, {"measurement": "% Reduction Live Worms", "setting": "[8]; single oral dose 125 mg/kg", "result": 100, "unit": "%"}, {"measurement": "Mutagenic activity, Revertants per n mole", "setting": "[2]", "result": 0.007, "unit": "Revertants per n mole"}, {"measurement": "LD50", "setting": "[1]", "result": "> 1500", "unit": "mg/kg"}]}
